Measurements taken from patent US20240262804A1, “NITROGEN-CONTAINING HETEROCYCLIC KETONES, PREPARATION METHODS AND MEDICINAL USES THEREOF” (Hansoh Bio LLC, priority 2021, published 2024).
pIC50: −log10 of the molar value.

Target: bovine cardiac myosin (Bos taurus (Bovine), UniProt Q9BE39)
Test: Myosin inhibitory potency: PK/LDH-coupled ATPase assay on bovine skinned cardiac myofibrils
Type: biochemical
Conditions: pCa=6.25, 50 μM ATP, 25° C., read-out: myosin inhibition activity IC50
In short: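 Bovine left-ventricle skinned myofibrils (1 mg/mL) in PM12 buffer pH 6.8 at pCa 6.25, 50 μM ATP, PK/LDH-coupled NADH depletion read at 340 nm, 25 °C.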

Sequence of bovine cardiac myosin (Q9BE39 whole entry): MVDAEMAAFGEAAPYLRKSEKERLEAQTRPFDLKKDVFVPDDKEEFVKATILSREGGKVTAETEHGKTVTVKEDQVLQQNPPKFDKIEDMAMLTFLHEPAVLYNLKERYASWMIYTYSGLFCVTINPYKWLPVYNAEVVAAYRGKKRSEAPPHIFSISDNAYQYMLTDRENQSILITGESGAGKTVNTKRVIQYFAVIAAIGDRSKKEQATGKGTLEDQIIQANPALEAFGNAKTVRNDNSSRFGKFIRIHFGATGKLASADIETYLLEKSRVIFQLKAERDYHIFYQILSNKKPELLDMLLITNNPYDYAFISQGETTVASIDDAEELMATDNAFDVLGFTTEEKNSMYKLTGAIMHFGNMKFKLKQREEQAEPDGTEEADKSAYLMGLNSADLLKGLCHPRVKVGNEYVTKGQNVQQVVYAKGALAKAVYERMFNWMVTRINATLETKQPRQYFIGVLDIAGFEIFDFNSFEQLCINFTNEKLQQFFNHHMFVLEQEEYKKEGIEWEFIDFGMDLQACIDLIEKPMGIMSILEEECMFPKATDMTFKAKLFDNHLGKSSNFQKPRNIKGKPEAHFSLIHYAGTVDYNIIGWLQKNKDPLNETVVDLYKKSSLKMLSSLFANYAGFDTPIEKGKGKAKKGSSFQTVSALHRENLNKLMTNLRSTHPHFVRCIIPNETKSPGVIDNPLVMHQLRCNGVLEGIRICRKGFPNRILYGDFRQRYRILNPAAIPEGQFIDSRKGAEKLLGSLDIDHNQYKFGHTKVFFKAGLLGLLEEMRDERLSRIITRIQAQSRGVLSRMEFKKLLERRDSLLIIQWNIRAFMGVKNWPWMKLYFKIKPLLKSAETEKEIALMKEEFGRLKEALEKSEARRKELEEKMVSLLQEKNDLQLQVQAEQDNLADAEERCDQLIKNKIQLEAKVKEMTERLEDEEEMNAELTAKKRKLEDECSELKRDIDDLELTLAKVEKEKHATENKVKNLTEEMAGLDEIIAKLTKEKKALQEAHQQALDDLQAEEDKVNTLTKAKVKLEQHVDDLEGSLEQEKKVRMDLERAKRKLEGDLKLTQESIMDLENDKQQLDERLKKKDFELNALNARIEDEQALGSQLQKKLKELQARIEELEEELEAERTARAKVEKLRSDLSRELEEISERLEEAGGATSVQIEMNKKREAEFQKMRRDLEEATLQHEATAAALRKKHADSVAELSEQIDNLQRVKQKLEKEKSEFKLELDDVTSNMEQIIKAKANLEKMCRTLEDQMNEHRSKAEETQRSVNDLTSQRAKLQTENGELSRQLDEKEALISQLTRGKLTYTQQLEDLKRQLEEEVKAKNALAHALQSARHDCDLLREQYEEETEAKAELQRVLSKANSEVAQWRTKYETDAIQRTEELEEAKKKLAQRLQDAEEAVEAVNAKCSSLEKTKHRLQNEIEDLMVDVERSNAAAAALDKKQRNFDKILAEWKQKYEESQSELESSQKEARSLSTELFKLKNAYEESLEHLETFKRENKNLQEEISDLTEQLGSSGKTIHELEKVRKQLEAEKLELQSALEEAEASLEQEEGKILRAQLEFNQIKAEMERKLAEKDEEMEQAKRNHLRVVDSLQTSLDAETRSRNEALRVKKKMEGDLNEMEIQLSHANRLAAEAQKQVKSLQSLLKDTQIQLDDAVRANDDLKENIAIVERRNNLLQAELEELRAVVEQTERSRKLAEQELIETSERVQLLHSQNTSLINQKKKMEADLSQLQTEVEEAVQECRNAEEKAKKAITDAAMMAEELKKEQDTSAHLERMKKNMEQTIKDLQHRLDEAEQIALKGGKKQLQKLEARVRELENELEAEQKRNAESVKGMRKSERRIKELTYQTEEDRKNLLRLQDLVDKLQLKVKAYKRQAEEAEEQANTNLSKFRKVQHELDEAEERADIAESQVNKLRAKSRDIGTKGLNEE
Sequence of bovine cardiac myosin (P85100 whole entry partner): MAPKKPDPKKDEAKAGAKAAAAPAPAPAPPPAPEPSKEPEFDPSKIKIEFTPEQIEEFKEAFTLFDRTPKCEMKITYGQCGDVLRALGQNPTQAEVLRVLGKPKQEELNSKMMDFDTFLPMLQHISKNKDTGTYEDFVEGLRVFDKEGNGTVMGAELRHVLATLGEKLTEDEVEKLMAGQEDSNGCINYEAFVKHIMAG
Sequence of bovine cardiac myosin (Q3SZE5 whole entry partner): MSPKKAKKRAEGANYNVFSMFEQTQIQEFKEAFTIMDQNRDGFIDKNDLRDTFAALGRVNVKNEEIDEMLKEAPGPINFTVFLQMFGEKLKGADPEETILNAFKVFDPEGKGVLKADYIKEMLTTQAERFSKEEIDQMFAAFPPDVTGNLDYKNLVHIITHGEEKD

SMILES	pIC50
C[C@H](Nc1nc(=O)n([C@H]2CC[C@H](O)CC2)c(=O)[nH]1)C1CCCCC1 [Example 238]	5.37
COC(=O)N1CCC(n2c(=O)nc(N[C@@H](C)c3cccc(C)c3)[nH]c2=O)CC1 [Example 242]	5.91
COC(=O)c1ccc([C@H](C)Nc2nc(=O)n(C3CCOCC3)c(=O)[nH]2)cc1 [Example 247]	5.62
C[C@H](Nc1nc(=O)n(C2CCOCC2)c(=O)[nH]1)c1ccc(S(C)(=O)=O)cc1 [Example 249]	6.11
C[C@H](Nc1nc(=O)n(C2CCOCC2)c(=O)[nH]1)c1cccc(C(O)C2CC2)c1 (stereo partly shown) [Example 250]	5.39
C[C@H](Nc1nc(=O)n(C2CCOCC2)c(=O)[nH]1)c1ccc(Cl)cc1 [Example 251]	6.02
COC[C@H](Nc1nc(=O)n(C2CCOCC2)c(=O)[nH]1)c1ccc(F)cc1F [Example 269]	5.75
Cc1cc([C@@H](C)Nc2nc(=O)n(C3CCOCC3)c(=O)[nH]2)c(F)cc1F [Example 272]	6.43
CC(=O)N1CC(c2cccc([C@H](C)Nc3nc(=O)n(C4CCOCC4)c(=O)[nH]3)c2)C1 [Example 273]	6.24
COC[C@@H](Nc1nc(=O)n(C2CCOCC2)c(=O)[nH]1)c1cc(C)ccc1F [Example 278]	6.20
C[C@H](Nc1nc(=O)n([C@H]2CCOC[C@H]2F)c(=O)[nH]1)c1ccc(F)cc1F [Example 281]	5.65
CO[C@H]1COCC[C@@H]1n1c(=O)nc(N[C@@H](C)c2cc(C)ccc2F)[nH]c1=O [Example 282]	6.05
CO[C@@H]1COCC[C@H]1n1c(=O)nc(N[C@@H](C)c2cc(C)ccc2F)[nH]c1=O [Example 283]	5.96
CC(C)[C@@H](O)c1cccc([C@H](C)Nc2nc(=O)n(C3CCOCC3)c(=O)[nH]2)c1 [Example 287]	6.27
C[C@H](Nc1nc(=O)n(C2CCOCC2)c(=O)[nH]1)c1cccc(C2CCN(CC(F)(F)F)CC2)c1 [Example 290]	5.66
CCC(Nc1nc(=O)n(C2CCOCC2)c(=O)[nH]1)c1cccc(C)c1 (stereo not shown) [Example 292]	6.04

SMILES	pIC50
COC[C@H](Nc1nc(=O)n(C2CCOCC2)c(=O)[nH]1)c1cccc(C)c1 [Example 294]	6.06
Cc1cc([C@H](C)Nc2nc(=O)n([C@@H]3CCOC[C@@H]3F)c(=O)[nH]2)ccc1F [Example 296]	6.07
Cc1cc([C@H](C)Nc2nc(=O)n([C@H]3CCOC[C@H]3F)c(=O)[nH]2)ccc1F [Example 297]	5.80
C[C@H](Nc1nc(=O)n(C2CCOCC2)c(=O)[nH]1)c1ccc2c(c1)OC(F)(F)O2 [Example 298]	6.06
C[C@H](Nc1nc(=O)n(C2CCN(CCF)CC2)c(=O)[nH]1)C1CCCCC1 [Example 300]	5.64
Cc1cccc([C@H](C)Nc2nc(=O)n(C3CCN(CCF)CC3)c(=O)[nH]2)c1 [Example 301]	6.10
Cc1ccc(F)c([C@H](C)Nc2nc(=O)n([C@H](C3CC3)C(F)(F)F)c(=O)[nH]2)c1 [Example 303]	6.25
COC[C@H](Nc1nc(=O)n(C2CCOCC2)c(=O)[nH]1)c1ccccc1 [Example 304]	5.75
Cc1ccc(F)c([C@H](C)Nc2nc(=O)n([C@@H](C3CC3)C(F)(F)F)c(=O)[nH]2)c1 [Example 312]	5.84
Cc1ccc(F)c([C@H](C)Nc2nc(=O)n([C@@H]3CCOC[C@@H]3F)c(=O)[nH]2)c1 [Example 313]	5.86
Cc1ccc(F)c([C@H](C)Nc2nc(=O)n([C@H]3CCOC[C@H]3F)c(=O)[nH]2)c1 [Example 314]	6.11
Cc1cccc([C@H](CO)Nc2nc(=O)n(C3CCOCC3)c(=O)[nH]2)c1 [Example 317]	5.55
C[C@@H](Nc1nc(=O)n(C2CCOCC2)c(=O)[nH]1)c1ccc2c(c1)OC(F)(F)O2 [Example 318]	5.98
CC(Nc1nc(=O)n(C2CCOCC2)c(=O)[nH]1)c1cc(F)ccc1F (stereo not shown) [Example 319]	5.89
C[C@H](Nc1nc(=O)n([C@@H]2CCOC[C@@H]2F)c(=O)[nH]1)c1ccc(Cl)c(Cl)c1 [Example 320]	5.99
C[C@H](Nc1nc(=O)n([C@H]2CCOC[C@H]2F)c(=O)[nH]1)c1ccc(Cl)c(Cl)c1 [Example 321]	5.97

More lines, now with the values ahead:

pIC50	SMILES
6.06	CC(=O)N1CCC(n2c(=O)nc(N[C@@H](C)c3cccc(C)c3)[nH]c2=O)CC1 [Example 243]
5.91	Cc1cccc([C@H](C)Nc2nc(=O)n(C3CCN(S(C)(=O)=O)CC3)c(=O)[nH]2)c1 [Example 244]
5.26	CNC(=O)N1CCC(n2c(=O)nc(N[C@@H](C)c3cccc(C)c3)[nH]c2=O)CC1 [Example 245]
5.82	CC(O)c1cccc([C@H](C)Nc2nc(=O)n(C3CCOCC3)c(=O)[nH]2)c1 (stereo partly shown) [Example 248]
6.35	O=c1nc(N[C@H](c2cccc(C3CN(CC(F)(F)F)C3)c2)C(F)F)[nH]c(=O)n1C1CCOCC1 [Example 259]
6.70	CC(=O)N1CC(c2cccc([C@@H](Nc3nc(=O)n(C4CCOCC4)c(=O)[nH]3)C(F)F)c2)C1 [Example 260]
6.12	CC(C)n1c(=O)nc(N[C@H](c2cccc(C3CN(CC(F)(F)F)C3)c2)C(F)F)[nH]c1=O [Example 261]
5.53	CC(C)n1c(=O)nc(N[C@H](c2ccc(F)cc2F)C(F)F)[nH]c1=O [Example 262]
5.64	O=c1nc(N[C@H](c2ccc(F)cc2F)C(F)F)[nH]c(=O)n1C1CCOCC1 [Example 263]
5.86	CC(C)n1c(=O)nc(N[C@H](c2cccc(C(C)(C)C#N)c2)C(F)F)[nH]c1=O [Example 264]
5.96	CC(C)n1c(=O)nc(N[C@H](c2cccc(C(O)C3CC3)c2)C(F)F)[nH]c1=O (stereo partly shown) [Example 265]
5.70	CC(O)c1cccc([C@@H](Nc2nc(=O)n(C3CCOCC3)c(=O)[nH]2)C(F)F)c1 (stereo partly shown) [Example 266]
6.39	CC(O)c1cccc([C@@H](Nc2nc(=O)n(C(C)C)c(=O)[nH]2)C(F)F)c1 (stereo partly shown) [Example 267]
5.97	CC(C)(C#N)c1cccc([C@@H](Nc2nc(=O)n(C3CCOCC3)c(=O)[nH]2)C(F)F)c1 [Example 268]
6.26	O=c1nc(N[C@H](c2cccc(Br)c2)C(F)F)[nH]c(=O)n1C1CCOCC1 [Example 270]
6.06	CC(C)n1c(=O)nc(N[C@@H](C)c2cccc([C@@H](C)O)c2)[nH]c1=O [Example 271]
6.41	C[C@H](Nc1nc(=O)n(C2CCOCC2)c(=O)[nH]1)c1cccc(CC(F)(F)F)c1 [Example 274]
5.74	COCC(Nc1nc(=O)n(C(C)C)c(=O)[nH]1)c1cc(C)ccc1F (stereo not shown) [Example 275]
6.82	C[C@H](Nc1nc(=O)n(C2CCOCC2)c(=O)[nH]1)c1cccc(C(C)(C)C#N)c1 [Example 276]
6.62	CC(C#N)c1cccc([C@H](C)Nc2nc(=O)n(C3CCOCC3)c(=O)[nH]2)c1 (stereo partly shown) [Example 277]
6.14	Cc1cccc([C@@H](Nc2nc(=O)n(C3CCOCC3)c(=O)[nH]2)C(F)(F)F)c1 [Example 279]
5.61	Cc1cccc([C@H](Nc2nc(=O)n(C3CCOCC3)c(=O)[nH]2)C(F)(F)F)c1 [Example 280]

pIC50	SMILES
6.54	Cc1cccc([C@H](Nc2nc(=O)n(C3CCOCC3)c(=O)[nH]2)C(F)F)c1 [Example 284]
6.29	COC[C@H](Nc1nc(=O)n(C(C)C)c(=O)[nH]1)c1cccc(C)c1 [Example 285]
6.62	C[C@H](Nc1nc(=O)n(C2CCOCC2)c(=O)[nH]1)c1cccc([C@@H](C)O)c1 [Example 286]
6.44	C[C@H](Nc1nc(=O)n(C2CCOCC2)c(=O)[nH]1)c1cccc(C2CN(CC(F)(F)F)C2)c1 [Example 288]
5.74	CC(=O)N1CCC(c2cccc([C@H](C)Nc3nc(=O)n(C(C)C)c(=O)[nH]3)c2)CC1 [Example 289]
6.07	C[C@H](Nc1nc(=O)n(C2CCOCC2)c(=O)[nH]1)c1cccc([C@H](O)C(F)(F)F)c1 [Example 291]
5.55	CC(C)n1c(=O)nc(N[C@@H](C)c2cccc(C3CCNCC3)c2)[nH]c1=O [Example 293]
5.87	CC(C)n1c(=O)nc(N[C@@H](C)c2cccc(C3CCOCC3)c2)[nH]c1=O [Example 295]
5.93	CO[C@@H]1COCC[C@H]1n1c(=O)nc(N[C@@H](C)c2cccc(C)c2)[nH]c1=O [Example 299]
6.06	Cc1ccc(F)c([C@H](C)Nc2nc(=O)n([C@H](C)C(F)(F)F)c(=O)[nH]2)c1 [Example 302]
6.02	Cc1cc([C@H](C)Nc2nc(=O)n(C(C)C)c(=O)[nH]2)ccc1F [Example 305]
5.91	C[C@@H](Nc1nc(=O)n(C2CCOCC2)c(=O)[nH]1)c1cccc(C2CC2)c1 [Example 306]
5.73	CC(C)n1c(=O)nc(N[C@@H](C)c2cccc(C(C)(C)O)c2)[nH]c1=O [Example 307]
6.00	CC(C)c1cccc([C@H](C)Nc2nc(=O)n(C3CCOCC3)c(=O)[nH]2)c1 [Example 308]
5.79	C[C@H](Nc1nc(=O)n([C@@H]2CCOC[C@@H]2F)c(=O)[nH]1)c1cccc(C(F)(F)F)c1 [Example 309]
5.83	C[C@H](Nc1nc(=O)n([C@H]2CCOC[C@H]2F)c(=O)[nH]1)c1cccc(C(F)(F)F)c1 [Example 310]
5.63	Cc1ccc(F)c([C@H](C)Nc2nc(=O)n([C@@H](C)C(F)(F)F)c(=O)[nH]2)c1 [Example 311]
5.83	Cc1cccc([C@H](C)Nc2nc(=O)n([C@@H]3CCOC[C@@H]3F)c(=O)[nH]2)c1 [Example 315]
5.91	Cc1cccc([C@H](C)Nc2nc(=O)n([C@H]3CCOC[C@H]3F)c(=O)[nH]2)c1 [Example 316]
5.92	CC(C)n1c(=O)nc(N[C@@H](C)c2cccc(C(F)(F)F)c2)[nH]c1=O [Example 322]
6.15	C[C@H](Nc1nc(=O)n([C@H](C)C(F)(F)F)c(=O)[nH]1)c1ccc(Cl)c(Cl)c1 [Example 323]
5.97	C[C@H](Nc1nc(=O)n([C@@H](C)C(F)(F)F)c(=O)[nH]1)c1ccc(Cl)c(Cl)c1 [Example 324]
